Source: patent publication US11666565B2, “Treatment of cancer using a SMAD3 inhibitor” (The Chinese University of Hong Kong, priority 2012, dated 2023)

Legend:
[1] = tested on: lung carcinoma (LLC)
Description: (§1) Therapeutic effect of SIS3 was tested in subcutaneously invasive mouse model of lung carcinoma and melanoma. Lucifase-labeled highly invasive mouse lung carcinoma cells (LLC-luc) and melanoma cells (B16F10-luc) were injected subcutaneously into genetically-identical C57/BL6 mice at a dose of 2 million cells in 200 ul PBS per mouse. Cancer growth, invasion, and metastasis were monitored by measuring tumor size, weight, and bioluminescent imaging weekly. After cancer was established at one week after implantation, tumor-bearing mice received intraperitoneally SIS3 at dosages of 2.5, 5, and 10 ug/Kg body weight daily for 2 weeks. Control animals received daily saline, instead of SIS3, and a group of tumor-bearing mice without any treatment (used as untreated controls) were also monitored. Five mice per group were used in this study. Mice were weighed and tumor size or metastasis was examined by live bioluminescent imaging weekly. The survival rate was recorded. All mice were euthanized 2 weeks after treatment for further examination by histology and tumor volume and weight, invasion, and metastasis.

[2] = tested on: melanoma (B16F10); conditions: syngeneic mouse model, N=5
Description: as §1

## COc1cc2c(cc1OC)CN(C(=O)/C=C/c1c(-c3ccccc3)n(C)c3ncccc13)CC2 [SIS3, (6,7-Dimethoxy-2-((2E)-3-(1-methyl-2-phenyl-1H-pyrrolo[2,3-b]pyridin-3-yl-prop-2-enoyl))-1,2,3,4-tetrahydroisoquinoline)]
[1]; after 10 days treatment with SIS3 at doses of 5-10 μg/g body weight, N=5, FIG. 6
  detectability of cancers: most of cancers become undetectable
[1]; lung carcinoma (LLC) mouse model, FIGS. 3-7
  invasion into the cancer surrounding tissues and metastasis to lymph nodes, lung, liver, gastric and colon tissue: suppressed
[1]; subcutaneous LLC, 2 million cells/mouse, syngeneic mouse model, N=5, FIG. 7A
  cancer growth as demonstrated by tumor weight: prevents cancer growth
[2]; subcutaneous melanoma B16F10, 3 million cells/mouse, FIG. 4
  cancer weight: markedly lowering the cancer weight
[2]; SIS3 intraperitoneally daily, 2.5, 5 and 10 ug/Kg body weight, FIG. 3
  melanoma (B16F10) growth by live imaging analysis: inhibits melanoma (B16F10) growth in a dosage-dependent manner
